One data set relates to HFF-1. As to the kind of experiment: Cytotoxicity MTT assay, HFF-1. The class given is cell-based. To be noted: HFF-1 non-cancerous human cells; 0.1 µM to 100 µM, duplicate, 5 h, 37°C; MTT 1 h, absorbance 600 nm; positive control Taxol. On the procedure: (§1) The cytotoxicity of the peptides on breast cancer cells (MDA-MB-231) and non-cancerous human cells (HFF-1) was measured using a standard MTT (3-(4,5-dimethylthiazol-2-yl)-2,5-diphenyltetrazolium bromide, Sigma-Aldrich) assay. Cells were seeded in a 96-well flat-bottomed plate at a concentration of 5.0×10^4 cells/cm^2 in DMEM in 10% FBS, or DMEM in 15% FBS, and incubated at 37°C in an atmosphere of 5% CO2 in air. After 24 h, peptides were added in duplicate at the concentrations ranging from 0.1 µM to 100 µM to make up a final volume of 100 µL in each well and then incubated for 5 h. MTT solution (10 µL) in PBS (5 mg/mL) was added to each well and maintained for 1 h. Media was removed, and formazan crystals were resuspended in 100 µL of DMSO. Absorbance was then read at 600 nm. Taxol was used as the positive control.
A general note: Tetrazolium assays rely on reduction of a dye to a coloured formazan, in cell work by metabolically active cells.

The test system of data set [1] is Plasmodium falciparum (FCR-3 strain). As to the kind of experiment: Antimalarial assay. The data set is classed as cell-based. To be noted: FCR-3 strain in human RBCs (type A), 5% hematocrit, 0.3% parasitemia, GIT medium, 37°C, 72 h; various concentrations, duplicate; Giemsa smears, microscopy; positive control artemisinin. The method, then:
Plasmodium falciparum (FCR-3 strain) was maintained in vitro at 37°C in GIT medium containing human red blood cells (RBCs, type A) at 5% hematocrit in 24-well plates which were put in a CO2 incubator (5% CO2, 5% O2 and 90% N2) at 37°C [41]. Peptides were added in duplicate in distilled water or 0.25 M phosphoric acid and prepared in various concentrations. 10 µL of this solution was added to individual cells of the plates. Erythrocytes with 0.3% parasitemia were added to the cells of the above plates containing 990 µL of culture medium. The plates were incubated at 37°C for 72 h in the CO2 incubator. To test the antimalarial activity of peptides, thin smears were prepared from each culture and stained with Giemsa. Erythrocytes were examined under microscopy. Artemisinin was used as the positive control. Drug-free control cultures were assayed simultaneously, [43].

The test system of the next data set is MDA-MB-231. As to the kind of experiment: Cytotoxicity MTT assay, MDA-MB-231. The settings on record: MDA-MB-231 human breast cancer cells; 0.1 µM to 100 µM, duplicate, 5 h, 37°C; MTT 1 h, absorbance 600 nm; positive control Taxol. The class given is cell-based. On the procedure:
as §1

Data set [2] deals with bovine pancreatic trypsin. As to the kind of experiment: Trypsin inhibitory assay. The data set is classed as biochemical. To be noted: substrate L-BAPNA, 50 mM Tris/20 mM CaCl2 pH 8.2, 10 min, room temperature; four concentrations, initial 750 µM or 1.5 mM with 10-fold dilutions; triplicate; absorbance 410 nm; positive control MCoTI-II. On the procedure:
A stock solution of bovine pancreatic trypsin at 4.5 mg/mL in 1 mM HCl was prepared and stored on ice. Firstly, the trypsin stock was diluted to 0.45 mg/mL in 50 mM Tris/20 mM CaCl2 (pH 8.2) buffer. Next, the substrate was prepared by dissolving 0.435 mg/mL L-BAPNA (Nα-benzoyl-L-arginine 4-nitroanilide hydrochloride, Sigma-Aldrich) in 1% DMSO/99% 50 mM Tris/20 mM CaCl2 buffer (pH 8.2). Four different peptide concentrations were tested starting from initial concentrations of 750 µM or 1.5 mM with 10-fold dilutions. The reaction mixture was prepared by dispensing 15 µL of 50 mM Tris/20 mM CaCl2 (pH 8.2) buffer, 5 µL of 0.45 mg/mL trypsin and followed by 5 µL of the tested peptide into each well of a 96-well plate in triplicate. A control without the tested peptide was used to measure 100% trypsin activity. Subsequently, 125 µL of 0.435 mg/mL substrate was added to the plate and incubated for 10 min at room temperature. The reaction was stopped by adding 25 µL of 30% acetic acid. Absorbance was measured at 410 nm using a Powerwave XS plate reader (Bio-Tek). Trypsin inhibition was calculated from the absorbance in the presence of the tested peptide as a percent of absorbance of the uninhibited trypsin [39]. MCoTI-II was used as the positive control.

Cytotoxic activity, antimalarial activity and trypsin inhibitory activity data for two sequences are collected here from article PMC3792974, “Novel Inhibitor Cystine Knot Peptides from Momordica charantia” (PLoS ONE, 2013).

Entries after “also recorded” stand apart in the source; their conditions may differ. No end group written: not given here.

On to “GCAGKACNLLGLTCDAGCFCRPDGVGIVAGVCV (disulfide (positions not given here)) [MCh-2, PDB 2M2R]”, for which the cytotoxic activity entry in the data set with HFF-1 and in the data set with MDA-MB-231 was “not active” throughout. The antimalarial activity result in data set [1] is given as “not active”. In data set [2], the trypsin inhibitory activity entry was “not active; also recorded: not trypsin inhibitors”.
As for “GCAGKSCNILGSDPCDAGCFCLPVGIVAGVCV (disulfide (positions not given here)) [MCh-1, PDB 2M2Q]”, the cytotoxic activity entry with HFF-1 and in the data set on MDA-MB-231 was “not active” in each case. For the same sequence, the antimalarial activity result in data set [1] is “not active”. The trypsin inhibitory activity result in data set [2] is recorded as “not active; also recorded: not trypsin inhibitors”.
